The numbers were not newly measured in patent US12263155B2, “Combinations of monoamine oxidase inhibitors and serotonin receptor agonists and their therapeutic use” (Remedi, Inc., priority 2022, dated 2025), which cites them from elsewhere.

For data set [1] the following is noted: in vivo; cited from earlier work.
The target in data set [2] is T1, platelet MAO-B (Homo sapiens, UniProt P27338).
T1 construct: host or cells: human platelets
T1 sequence (P27338 1-520): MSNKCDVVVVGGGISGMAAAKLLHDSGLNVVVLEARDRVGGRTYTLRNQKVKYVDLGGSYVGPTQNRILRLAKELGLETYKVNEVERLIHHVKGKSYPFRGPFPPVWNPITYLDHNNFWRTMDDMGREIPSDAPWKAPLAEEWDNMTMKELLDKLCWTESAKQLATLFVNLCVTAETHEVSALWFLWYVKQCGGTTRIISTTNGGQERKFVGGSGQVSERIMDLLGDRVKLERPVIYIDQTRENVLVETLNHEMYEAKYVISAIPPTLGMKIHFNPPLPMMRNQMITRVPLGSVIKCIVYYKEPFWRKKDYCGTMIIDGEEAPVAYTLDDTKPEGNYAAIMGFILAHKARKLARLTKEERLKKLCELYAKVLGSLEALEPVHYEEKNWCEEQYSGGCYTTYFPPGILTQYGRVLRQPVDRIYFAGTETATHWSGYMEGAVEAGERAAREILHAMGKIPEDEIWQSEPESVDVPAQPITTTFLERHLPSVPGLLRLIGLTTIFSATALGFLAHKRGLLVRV
The settings on record: cited from earlier work.

Read-outs that look alike come from different tables or passages of the source.

As to `CN(C)CCc1c[nH]c2ccccc12` [DMT, N,N-dimethyltryptamine], the “apparent volume of distribution” value in data set [1] is 36 to 55 L/kg.

Take `O=C(NCCN1CCOCC1)c1ccc(Cl)cc1` [moclobemide]: the “inhibition of platelet MAO-B” value was 32% in data set [2] (450 mg dose) and 27% in data set [2] (human subjects, single 100 mg dose).
